Results published in patent US9186344B2, “Glycogen or polysaccharide storage disease treatment method” (Baylor Research Institute, priority 2004, dated 2015).

How the values were obtained:
[1] = test system: adult-onset GSD II (acid maltase deficiency) patient; assay: Clinical course and pCO2 on triheptanoin diet, Example 1 patient; assay type: in vivo, human
Text: During the subsequent 2 years, the patient experienced progressive muscle weakness, affecting strength and endurance, swallowing and producing urgency for urination and defecation. The patient's breathing became a major issue and weight had decreased from ˜127 to 101 lbs (46 Kg) over this interval. […] Home O2 was started and upon respiratory arrest was intubated and unsuccessfully extubated leading to emergency admission lasting one month. Following informed consent, the patient agreed to enter an approved Institutional Review Board (IRB) Protocol for dietary therapy with triheptanoin oil.
Clinical and Biochemical Course on Therapy. […] Esophageal dysmotility was documented. A percutaneous endoscopic gastrostomy (PEG) was placed on the sixth hospital day.
The diet was based on vivonex and ˜1500 Kcal was given by nasogastric tube, on admission. […] Total caloric intake was raised from ˜1500 to 1700 to 1900 per day with these dietary changes during […] 33 day admission.
The patient began ambulating by the 10th day that improved steadily, showering with assistance by the 28th day. Pneumonia on day 17 responded to therapy and was extubated on day 23. They were discharged on bilevel positive airway pressure (BIPAP), the C7 diet, and carnitine supplement.

GSDII patient = assay: Urinary organic acids, blood acylcarnitines and plasma amino acids, Example 2 patient; assay type: in vivo, human; settings: thirteen hours after initiating the C7 diet
Experimental: Organic Acids may be measured as follows. Organic acids in urine specimens are determined with isolation by Liquid Partition Chromatography (LPC) and quantitative Gas Chromatography-Mass Spectrometry (GCMS) using an internal standard. The specimen is derivatized to form pentafluorobenzyl oximes (PFBO) of oxo-acids and the organic acids isolated by Liquid Partition chromatography on silicic acid hydrated with dilute sulfuric acid and eluted with mixtures of tert-Amyl alcohol and chloroform. After drying, the organic acids are derivatized to form volatile trimethylsilyl (TMS) derivatives for separation by capillary Gas Chromatography (GC) with temperature programming. Detection is by Mass Spectrometry (MS) with identification of the organic acids by their mass spectra. Organic acids are quantified by peak areas of reconstructed ion chromatograms with internal standards and calibration curves.
(§1) Acylcarnitine Profiles. Acylcarnitines and carnitine levels in dried blood spots (dbs), plasma and amniotic fluid by automated electrospray tandem mass spectrometry Acylcarnitines are extracted from blood spots, plasmas and amniotic fluid with methanol containing stable isotopically labeled internal standards. The extract is derivatized to form butyl esters. An automated sample introduction system delivers the samples to the electrospray tandem mass spectrometer (ESI-MS/MS) operating in the multiple channel analysis mode in which acylcarnitines are identified, profiled, and quantified with stable isotopically labeled internal standards. This test also provides quantification of free, sum of acylcarnitines, and total carnitine levels.
Citrate supplementation was continued throughout the treatment.

[2] = test system: polysaccharide storage myopathy (PSSM); assay: Treatment of horses with polysaccharide storage myopathy with triheptanoin diet; assay type: in vivo, horse
Experimental: Treatment of Horses. […] The first was an 8 year old mare who was unable to walk or exercise without severe muscle pain, rhabdomyolysis, and “locking up.” The owners were approaching “putting the animal down” (killing it). […] A second horse was encountered at 4 months with proven polysaccharide storage myopathy (PSSM) that was not able to walk adequately or nurse from its mother. The owners were prepared to kill the animal but decided to try the triheptanoin diet first. […] A third horse, also an 8 year old mare, developed PSSM and “locked up.” She was no longer available to ride and could no longer jump.

[3] = Blood acylcarnitine profile after triheptanoin via nasogastric tube; assay type: in vivo, horse
Text: as §1
Horses: Eight healthy, fit 4 year old thoroughbred geldings may be used in a study. These horses are all sound and trained to the treadmill. The ability of horses to absorb and digest C7 oil was first determined.

[4] = test system: FOD patients (CPT I, CACT, CPT II, VLCAD, TFP, LCHAD, SCAD deficiency); assay: Odd chain fatty acid (triheptanoin) diet in patients with mitochondrial fat oxidation defects (FOD); assay type: in vivo, human; settings: for Patient mortality / Patient mortality (deaths/patients): C7 Diet
Text: Other examples of FODs that derive from errors in metabolism include: Carnitine Palmitoyl Transferase I (CPT I) deficiency, Carnitine-Acylcarnitine Translocase (CACT) deficiency, Carnitine Palmitoyl Transferase […] deficiency, very long chain acyl-CoA dehydrogenase (VLCAD) deficiency, Trifunctional Protein (TFP) deficiency, long chain acyl 3-hydroxy CoA dehydrogenase (LCHAD) and short chain acyl CoA dehydrogenase (SCAD) deficiency. Patients having each of these diseases were located and placed on an odd chain fatty acid diet, with informed consent and following under IRB.
The odd chain fatty acid diet and therapy of the present invention was compared to conventional treatments, which include: (1) a low fat, high carbohydrate diet; avoid fasting; frequent or continuous feeding and night time corn starch; or (2) a medium chain triglyceride (MCT oil) for long chain disorders; or (3) insulin and glucose to inhibit lipolysis. However, current treatments fail to treat the hypoglycemia and hepatomegaly (which often persist), the frequency and severity of Rhabdomyolysis; muscle weakness and fatigue are not improved and heart function often remains abnormal. Biochemically, the failure of existing therapies leave patients with impaired Acetyl-CoA production and ketogenesis, there remains an increase Acyl-CoA:CoA (mitochondrion) ratio during illness, a decreased NADH:NAD ratio during illness (mitochondrion), hypoglycemia and hyperammonemia.
Table 4 summarized a comparison of patent mortality for patients with FOD of conventional treatment (based on the literature, see *Neonatal onset; Conventional Diet Rx: JIMD 22: 488,1999), and the odd chain fatty acids of the present invention. There is a demonstrable increase in patient survival across a number of FODs.

[5] = on C7 diet and carnitine supplement
[6] = dietary triheptanoin supplementation, FOD patients

CCCCCCC(=O)OCC(COC(=O)CCCCCC)OC(=O)CCCCCC [C7, triheptanoin]
pCO2 (35-45) ([1]; Hospital Day 1, C7 26% Kcal): 43 | pCO2 (35-45) ([1]; Hospital Day 4, C7 35% Kcal): 51 | pCO2 (35-45) ([1]; Hospital Day 7, C7 35% Kcal): 42 | pCO2 (35-45) ([1]; Hospital Day 23, C7 40% Kcal, extubated): 48 | pCO2 (35-45) ([1]; Hospital Day 33, C7 40% Kcal, discharge): 44 | gastrostomy feeds stopped (swallowing improved) ([1]; after discharge): 7 months | patient weight ([1]; by 15 months post-discharge, 46 Kg on admission): 60 kg | day of extubation ([1]; hospital admission on C7 diet): 23 days | return to work half-time after discharge [1, 5]: 5 weeks | working full-time after discharge [1, 5]: ≤ 10 weeks | full vital capacity ([1]; post-discharge follow-up): 40-45 % of predicted | urgency for urination and defecation ([1]; within 13 hours of beginning the C7 diet): had ceased and remained normal for the rest of the admission | pCO2 ([1]; within 13 hours of beginning the C7 diet, fell from 68, normal 35-45): 43 | increase of plasma BCAA's (GSDII patient): ~2 fold | increase of plasma Glutamine (GSDII patient): ~2 fold | increase of plasma alanine level (GSDII patient): 4 fold | time to become asymptomatic ([2]; first horse, 8 year old mare, triheptanoin in feed pellets): ≤ 30 days | blood enzyme levels related to muscle disease (including serum creatine phosphokinase) ([2]; second horse, 4 month foal): had normalized | time to running and playing without muscle pain ([2]; second horse, 4 month foal): ≤ 24 h | symptoms after adjustment of the dose for weight gain ([2]; second horse, dose back to 2 grams/Kg body weight): eliminated all symptoms | clinical status ([2]; third horse, 8 year old mare, 1.0 gm/Kg/day, one week of diet treatment): asymptomatic with normal blood chemistry levels | time of peak of C7 acyl carnitine ([3]; 0.5 gm/kg via nasogastric tube, fasted 12 hours, three horses): 90 min | time of peak serum concentration of C3 acylcarnitine ([3]; in vivo): 120 min | time of peak serum concentration of C5 acylcarnitine ([3]; in vivo): 120 min | Patient mortality ([4]; CACT, neonatal onset): 100% | Patient mortality (deaths/patients) ([4]; CACT, neonatal onset): 1/1 | retinopathy (Choroideremia) ([4]; LCHAD patients): unchanged | Patient mortality ([4]; LCHAD): 0% | Patient mortality (deaths/patients) ([4]; LCHAD): 0/9 | peripheral neuropathy ([4]; TFP patients): unchanged | Patient mortality ([4]; TFP): 0% | Patient mortality (deaths/patients) ([4]; TFP): 1/5 | Patient mortality ([4]; VLCAD): 5% | Patient mortality (deaths/patients) ([4]; VLCAD): 1/19 | Rhabdomyolysis [4, 6]: marked attenuation of Rhabdomyolysis | cardiomyopathies [4, 6]: cardiomyopathies were resolved | glucose homeostasis [4, 6]: normal glucose homeostasis was observed | hepatomegaly [4, 6]: elimination of hepatomegaly | mortality [4, 6]: reduced mortality | muscle strength and endurance [4, 6]: improved muscle strength and endurance | CPK (creatine kinase) levels ([4]; long-chain defects, FIG. 9): rapidly suppresses CPK levels
